Results on eight molecules are retold here after ChEMBL document CHEMBL5291721, “A preclinical secondary pharmacology resource illuminates target-adverse drug reaction associations of marketed drugs” (Nat Commun, 2023).

The target in assay [1] is T1, 5-hydroxytryptamine receptor 1A (Homo sapiens, UniProt P08908).
T1 sequence (P08908 whole entry): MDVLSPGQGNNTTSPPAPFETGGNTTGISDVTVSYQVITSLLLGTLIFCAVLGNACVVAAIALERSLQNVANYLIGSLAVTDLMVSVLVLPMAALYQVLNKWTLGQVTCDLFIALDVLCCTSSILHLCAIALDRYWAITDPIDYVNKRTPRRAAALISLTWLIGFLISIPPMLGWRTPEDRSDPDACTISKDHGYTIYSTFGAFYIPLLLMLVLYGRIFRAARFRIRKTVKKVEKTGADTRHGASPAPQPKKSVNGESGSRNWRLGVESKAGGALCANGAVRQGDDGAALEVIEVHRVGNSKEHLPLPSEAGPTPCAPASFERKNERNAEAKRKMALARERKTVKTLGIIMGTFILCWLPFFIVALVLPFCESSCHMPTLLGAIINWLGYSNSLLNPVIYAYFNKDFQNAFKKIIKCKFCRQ

Assay [2] concerns the target T2, Adenosine receptor A3 (Homo sapiens, UniProt P0DMS8).
T2 sequence (P0DMS8 whole entry): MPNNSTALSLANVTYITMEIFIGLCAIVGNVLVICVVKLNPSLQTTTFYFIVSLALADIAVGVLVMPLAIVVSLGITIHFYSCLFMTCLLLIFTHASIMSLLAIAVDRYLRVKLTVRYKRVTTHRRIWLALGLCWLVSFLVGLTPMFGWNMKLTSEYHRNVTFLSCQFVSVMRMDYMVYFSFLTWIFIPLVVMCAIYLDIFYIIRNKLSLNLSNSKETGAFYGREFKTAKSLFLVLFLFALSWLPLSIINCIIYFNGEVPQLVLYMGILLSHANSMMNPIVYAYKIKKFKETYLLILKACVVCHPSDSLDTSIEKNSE

Assay [3] addresses Sodium-dependent dopamine transporter (Homo sapiens, UniProt Q01959).
The target in assay [4] is D(3) dopamine receptor (Homo sapiens, UniProt P35462).
Sequence of D(3) dopamine receptor (P35462 whole entry): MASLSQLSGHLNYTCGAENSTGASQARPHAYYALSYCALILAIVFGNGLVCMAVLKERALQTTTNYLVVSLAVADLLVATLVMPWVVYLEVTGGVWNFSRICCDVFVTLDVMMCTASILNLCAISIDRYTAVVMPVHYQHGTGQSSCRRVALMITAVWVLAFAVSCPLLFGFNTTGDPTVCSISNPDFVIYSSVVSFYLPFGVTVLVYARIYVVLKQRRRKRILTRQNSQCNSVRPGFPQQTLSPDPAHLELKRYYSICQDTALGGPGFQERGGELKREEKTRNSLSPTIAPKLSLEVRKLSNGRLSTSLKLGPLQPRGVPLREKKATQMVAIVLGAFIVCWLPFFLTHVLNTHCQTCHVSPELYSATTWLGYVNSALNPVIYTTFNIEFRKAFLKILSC
The target in assay [5] is Prothrombin (Homo sapiens, UniProt P00734). The class given is functional.
For assay [6], the target named is Voltage-gated inwardly rectifying potassium channel KCNH2 (Homo sapiens, UniProt Q12809). The assay is classed as functional. To be noted: read-out: AC50.
Sequence of Voltage-gated inwardly rectifying potassium channel KCNH2 (Q12809 whole entry): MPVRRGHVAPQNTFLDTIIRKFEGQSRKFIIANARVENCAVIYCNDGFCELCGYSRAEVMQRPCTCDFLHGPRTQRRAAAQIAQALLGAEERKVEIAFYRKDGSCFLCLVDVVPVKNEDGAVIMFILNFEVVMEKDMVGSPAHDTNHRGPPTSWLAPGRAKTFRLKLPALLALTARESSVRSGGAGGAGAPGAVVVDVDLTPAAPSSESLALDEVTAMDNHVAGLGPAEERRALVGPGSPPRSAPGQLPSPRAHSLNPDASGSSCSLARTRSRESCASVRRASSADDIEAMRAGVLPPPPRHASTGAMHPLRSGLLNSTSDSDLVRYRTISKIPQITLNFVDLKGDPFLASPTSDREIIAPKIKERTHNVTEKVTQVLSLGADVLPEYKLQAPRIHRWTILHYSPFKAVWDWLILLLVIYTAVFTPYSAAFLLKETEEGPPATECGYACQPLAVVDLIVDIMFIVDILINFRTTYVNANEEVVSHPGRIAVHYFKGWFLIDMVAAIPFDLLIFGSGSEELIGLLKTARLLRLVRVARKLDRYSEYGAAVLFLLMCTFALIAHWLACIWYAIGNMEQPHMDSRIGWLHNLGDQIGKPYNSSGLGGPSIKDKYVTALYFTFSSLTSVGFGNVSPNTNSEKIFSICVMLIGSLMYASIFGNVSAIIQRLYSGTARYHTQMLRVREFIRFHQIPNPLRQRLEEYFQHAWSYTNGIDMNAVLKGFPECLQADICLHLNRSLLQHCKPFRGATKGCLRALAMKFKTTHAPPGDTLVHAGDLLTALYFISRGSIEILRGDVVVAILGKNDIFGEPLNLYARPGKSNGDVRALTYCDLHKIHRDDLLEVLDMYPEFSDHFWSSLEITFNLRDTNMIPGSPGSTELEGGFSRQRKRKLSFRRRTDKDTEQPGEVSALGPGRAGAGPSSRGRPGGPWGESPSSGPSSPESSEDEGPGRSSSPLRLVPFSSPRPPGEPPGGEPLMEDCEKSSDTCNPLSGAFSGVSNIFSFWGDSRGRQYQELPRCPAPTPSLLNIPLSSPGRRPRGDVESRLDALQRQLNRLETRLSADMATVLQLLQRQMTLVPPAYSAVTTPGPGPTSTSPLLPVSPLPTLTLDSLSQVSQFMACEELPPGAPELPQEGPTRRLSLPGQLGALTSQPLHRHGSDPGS
For assay [7], the target named is 5-hydroxytryptamine receptor 2B (Homo sapiens, UniProt P41595). The assay is classed as functional, cell-based.
Sequence of 5-hydroxytryptamine receptor 2B (P41595 whole entry): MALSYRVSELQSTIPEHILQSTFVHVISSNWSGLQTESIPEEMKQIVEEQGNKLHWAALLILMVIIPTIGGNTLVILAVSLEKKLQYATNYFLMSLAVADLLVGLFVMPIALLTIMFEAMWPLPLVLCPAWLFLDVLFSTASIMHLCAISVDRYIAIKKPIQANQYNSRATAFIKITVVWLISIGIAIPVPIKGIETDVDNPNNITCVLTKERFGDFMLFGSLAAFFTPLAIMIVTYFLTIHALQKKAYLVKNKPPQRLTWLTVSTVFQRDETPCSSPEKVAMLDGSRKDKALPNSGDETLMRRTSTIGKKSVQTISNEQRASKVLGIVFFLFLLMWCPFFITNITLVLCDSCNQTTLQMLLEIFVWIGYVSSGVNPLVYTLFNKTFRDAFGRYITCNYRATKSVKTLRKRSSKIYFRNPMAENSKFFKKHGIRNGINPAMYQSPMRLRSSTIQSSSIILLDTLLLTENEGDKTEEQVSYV
Assay [8] addresses Acetylcholinesterase (Homo sapiens, UniProt P22303). The assay is classed as functional.
Assay [9] addresses Vascular endothelial growth factor receptor 2 (Homo sapiens, UniProt P35968). The class given is functional.
For assay [10], the target named is cGMP-inhibited 3',5'-cyclic phosphodiesterase 3A (Homo sapiens, UniProt Q14432). The class given is functional.
Sequence of cGMP-inhibited 3',5'-cyclic phosphodiesterase 3A (Q14432 whole entry): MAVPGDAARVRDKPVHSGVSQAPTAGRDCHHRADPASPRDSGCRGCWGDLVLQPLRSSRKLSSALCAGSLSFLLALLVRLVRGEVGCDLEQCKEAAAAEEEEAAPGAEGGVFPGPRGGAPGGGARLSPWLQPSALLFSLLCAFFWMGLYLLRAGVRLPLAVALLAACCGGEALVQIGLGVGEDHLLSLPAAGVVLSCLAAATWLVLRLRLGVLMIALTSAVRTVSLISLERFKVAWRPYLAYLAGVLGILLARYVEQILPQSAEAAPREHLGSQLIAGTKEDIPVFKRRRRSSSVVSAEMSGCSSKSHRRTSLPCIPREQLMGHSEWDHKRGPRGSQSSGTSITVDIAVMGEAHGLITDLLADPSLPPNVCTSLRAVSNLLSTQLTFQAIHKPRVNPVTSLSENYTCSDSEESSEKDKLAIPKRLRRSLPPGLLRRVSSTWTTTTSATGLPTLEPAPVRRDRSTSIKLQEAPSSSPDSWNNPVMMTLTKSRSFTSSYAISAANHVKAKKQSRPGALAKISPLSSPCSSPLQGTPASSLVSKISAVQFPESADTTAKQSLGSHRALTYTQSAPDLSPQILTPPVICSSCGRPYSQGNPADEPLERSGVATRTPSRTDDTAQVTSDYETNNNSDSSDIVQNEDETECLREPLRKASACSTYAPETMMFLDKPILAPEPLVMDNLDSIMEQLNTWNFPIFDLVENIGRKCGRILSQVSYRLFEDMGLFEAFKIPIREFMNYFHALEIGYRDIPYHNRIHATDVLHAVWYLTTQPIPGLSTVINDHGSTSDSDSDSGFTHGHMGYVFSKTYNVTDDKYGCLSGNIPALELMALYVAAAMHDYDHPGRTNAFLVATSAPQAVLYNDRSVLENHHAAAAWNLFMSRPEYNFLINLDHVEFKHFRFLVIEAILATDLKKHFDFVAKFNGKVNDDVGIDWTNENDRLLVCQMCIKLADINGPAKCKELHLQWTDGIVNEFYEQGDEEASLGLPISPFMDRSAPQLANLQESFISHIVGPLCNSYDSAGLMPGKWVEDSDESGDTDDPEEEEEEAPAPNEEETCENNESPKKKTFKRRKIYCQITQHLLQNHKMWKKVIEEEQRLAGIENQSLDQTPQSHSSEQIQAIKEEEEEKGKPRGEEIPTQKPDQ
Assay [11] deals with T3, Amine oxidase [flavin-containing] A (Homo sapiens, UniProt P21397).
T3 sequence (P21397 whole entry): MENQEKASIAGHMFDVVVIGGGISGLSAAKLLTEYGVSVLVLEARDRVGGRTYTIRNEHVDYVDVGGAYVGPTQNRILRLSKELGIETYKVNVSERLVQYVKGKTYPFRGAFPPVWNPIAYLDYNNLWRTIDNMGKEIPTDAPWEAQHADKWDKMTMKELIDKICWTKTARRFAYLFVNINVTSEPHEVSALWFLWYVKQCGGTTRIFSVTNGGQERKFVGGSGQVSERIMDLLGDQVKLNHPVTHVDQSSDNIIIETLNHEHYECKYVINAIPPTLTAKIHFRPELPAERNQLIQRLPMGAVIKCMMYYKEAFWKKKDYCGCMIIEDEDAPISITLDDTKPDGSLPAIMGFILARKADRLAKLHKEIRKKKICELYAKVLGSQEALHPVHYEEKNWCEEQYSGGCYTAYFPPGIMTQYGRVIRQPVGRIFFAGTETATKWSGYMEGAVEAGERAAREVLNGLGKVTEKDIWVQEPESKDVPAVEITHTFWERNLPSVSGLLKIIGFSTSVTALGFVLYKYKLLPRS
The assay is classed as functional.

Assay [12] deals with Prostaglandin G/H synthase 1 (Homo sapiens, UniProt P23219). The class given is functional.
Sequence of Prostaglandin G/H synthase 1 (P23219 whole entry): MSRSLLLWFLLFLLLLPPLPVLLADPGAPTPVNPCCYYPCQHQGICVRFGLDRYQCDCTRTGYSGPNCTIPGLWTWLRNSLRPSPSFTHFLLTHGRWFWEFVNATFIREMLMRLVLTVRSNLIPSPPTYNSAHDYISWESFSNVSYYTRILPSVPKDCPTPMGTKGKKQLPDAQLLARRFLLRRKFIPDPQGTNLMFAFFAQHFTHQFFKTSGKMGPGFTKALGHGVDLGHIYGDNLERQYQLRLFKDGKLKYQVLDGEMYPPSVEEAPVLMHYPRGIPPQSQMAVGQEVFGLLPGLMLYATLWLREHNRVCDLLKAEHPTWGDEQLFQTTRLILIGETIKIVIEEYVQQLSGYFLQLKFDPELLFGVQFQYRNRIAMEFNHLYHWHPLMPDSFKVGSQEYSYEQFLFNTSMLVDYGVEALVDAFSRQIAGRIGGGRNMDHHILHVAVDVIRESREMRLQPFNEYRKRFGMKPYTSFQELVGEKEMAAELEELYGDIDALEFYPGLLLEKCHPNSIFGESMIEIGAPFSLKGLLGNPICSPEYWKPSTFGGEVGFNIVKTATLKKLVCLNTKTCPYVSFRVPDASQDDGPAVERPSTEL
Assay [13] addresses Sodium-dependent serotonin transporter (Homo sapiens, UniProt P31645).
The target in assay [14] is T4, Estrogen receptor (Homo sapiens, UniProt P03372).
T4 sequence (P03372 whole entry): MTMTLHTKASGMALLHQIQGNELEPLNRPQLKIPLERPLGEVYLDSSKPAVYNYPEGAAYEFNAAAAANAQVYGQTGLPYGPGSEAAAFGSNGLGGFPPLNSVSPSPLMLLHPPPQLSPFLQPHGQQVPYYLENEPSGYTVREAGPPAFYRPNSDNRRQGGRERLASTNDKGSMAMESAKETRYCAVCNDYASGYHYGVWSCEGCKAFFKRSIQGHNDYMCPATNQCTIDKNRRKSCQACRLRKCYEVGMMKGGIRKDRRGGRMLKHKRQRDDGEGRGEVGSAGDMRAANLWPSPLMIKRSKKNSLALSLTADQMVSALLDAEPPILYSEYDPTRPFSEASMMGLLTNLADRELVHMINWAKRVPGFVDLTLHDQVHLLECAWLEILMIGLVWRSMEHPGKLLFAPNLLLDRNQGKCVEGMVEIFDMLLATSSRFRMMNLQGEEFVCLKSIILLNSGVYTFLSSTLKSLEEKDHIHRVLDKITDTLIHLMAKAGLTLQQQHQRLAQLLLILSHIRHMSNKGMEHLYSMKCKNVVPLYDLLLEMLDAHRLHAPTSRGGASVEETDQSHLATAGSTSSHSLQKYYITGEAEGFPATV

Assay [15] has as its target T5, Thromboxane A2 receptor (Homo sapiens, UniProt P21731).
T5 sequence (P21731 whole entry): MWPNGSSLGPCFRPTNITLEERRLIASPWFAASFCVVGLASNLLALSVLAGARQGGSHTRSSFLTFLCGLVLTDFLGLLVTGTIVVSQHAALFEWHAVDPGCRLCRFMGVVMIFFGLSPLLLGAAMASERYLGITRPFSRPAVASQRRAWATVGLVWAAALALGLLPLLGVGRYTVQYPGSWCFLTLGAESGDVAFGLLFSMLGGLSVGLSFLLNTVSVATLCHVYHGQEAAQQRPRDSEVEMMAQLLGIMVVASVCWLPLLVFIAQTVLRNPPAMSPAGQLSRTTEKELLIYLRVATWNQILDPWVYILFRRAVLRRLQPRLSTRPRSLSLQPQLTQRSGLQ
The assay is classed as functional, cell-based.

Assay [16] concerns the target Sodium-dependent noradrenaline transporter (Homo sapiens, UniProt P23975).

Structures are written as SMILES.
Note: assay procedure not described here.

Sequence of Sodium-dependent serotonin transporter (P31645 whole entry): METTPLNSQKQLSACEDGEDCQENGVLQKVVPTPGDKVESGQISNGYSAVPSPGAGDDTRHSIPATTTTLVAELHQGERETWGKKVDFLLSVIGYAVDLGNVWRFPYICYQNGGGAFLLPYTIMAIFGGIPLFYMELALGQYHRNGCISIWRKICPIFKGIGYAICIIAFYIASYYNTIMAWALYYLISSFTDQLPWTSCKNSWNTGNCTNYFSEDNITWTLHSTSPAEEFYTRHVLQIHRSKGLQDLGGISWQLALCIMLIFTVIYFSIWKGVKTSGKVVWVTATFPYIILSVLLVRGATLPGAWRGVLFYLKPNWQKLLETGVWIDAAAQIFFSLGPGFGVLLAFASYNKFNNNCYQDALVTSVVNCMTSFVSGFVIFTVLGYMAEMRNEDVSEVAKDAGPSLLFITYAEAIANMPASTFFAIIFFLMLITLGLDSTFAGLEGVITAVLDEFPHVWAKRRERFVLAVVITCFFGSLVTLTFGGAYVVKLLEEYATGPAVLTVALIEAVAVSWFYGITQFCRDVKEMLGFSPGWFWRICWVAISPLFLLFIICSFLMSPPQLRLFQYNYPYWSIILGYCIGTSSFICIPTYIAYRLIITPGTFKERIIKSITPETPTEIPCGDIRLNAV
Sequence of Sodium-dependent dopamine transporter (Q01959 whole entry): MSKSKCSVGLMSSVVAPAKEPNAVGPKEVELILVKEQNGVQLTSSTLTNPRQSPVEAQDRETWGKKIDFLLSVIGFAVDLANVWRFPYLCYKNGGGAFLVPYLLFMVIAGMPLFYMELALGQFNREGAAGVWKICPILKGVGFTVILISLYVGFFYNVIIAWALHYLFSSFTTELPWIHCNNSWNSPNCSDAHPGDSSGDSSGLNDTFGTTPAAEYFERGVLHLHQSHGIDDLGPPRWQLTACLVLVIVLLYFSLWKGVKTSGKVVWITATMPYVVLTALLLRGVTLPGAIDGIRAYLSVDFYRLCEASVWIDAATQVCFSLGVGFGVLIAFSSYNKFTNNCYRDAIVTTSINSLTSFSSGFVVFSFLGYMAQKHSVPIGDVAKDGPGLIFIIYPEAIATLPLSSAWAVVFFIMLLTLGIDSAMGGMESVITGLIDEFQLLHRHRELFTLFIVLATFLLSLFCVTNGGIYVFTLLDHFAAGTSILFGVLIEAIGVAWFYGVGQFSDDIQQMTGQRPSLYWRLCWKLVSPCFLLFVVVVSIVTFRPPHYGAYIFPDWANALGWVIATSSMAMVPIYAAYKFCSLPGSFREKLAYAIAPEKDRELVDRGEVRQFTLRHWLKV

Turning to `CC(O)(CC(=O)O)CC(=O)O` [MEGLUTOL], the half-maximal activity concentration (AC50) in assay [1], in assay [2], in assay [3], in assay [4], in [5] and in [6] was > 30 µM throughout. The AC50 in assay [7], in assay [8], in [9], in assay [10], in [11] and in assay [12] was > 30 µM each time. For the same molecule, the half-maximal activity concentration (AC50) (in general, the midpoint of the concentration-response curve, whichever way the signal moves) in assay [13] is > 30 µM; in [14], > 30 µM; in assay [15] it was 13.8 µM; in assay [16] it was > 30 µM.

For the molecule `CC(C)=CCC/C(C)=C/CC/C(C)=C/CC/C(C)=C/CC1=C(C)C(=O)c2ccccc2C1=O` [MENATETRENONE], the AC50 is 22.5 µM in assay [1]; 4.72 µM in assay [2]; > 30 µM in assay [3]; 2.91 µM in [4]; > 30 µM in assay [5]; > 30 µM in [6]. Also, the concentration at half-maximal activity (AC50) was > 30 µM in [7]; > 30 µM in assay [8]; > 30 µM in [9]; 5.09 µM in assay [10]; > 30 µM in assay [11]; 13.5 µM in assay [12]. Further, the AC50 in assay [13], in assay [14], in assay [15] and in [16] was > 30 µM each time.

Turning to `NC(=O)N/N=C/c1ccc([N+](=O)[O-])o1` [NITROFURAZONE], the AC50 in [1], in assay [2], in assay [3], in assay [4], in [5] and in [6] was > 30 µM each time. Also, the half-maximal activity concentration (AC50) in [7] was > 30 µM; in assay [8], > 30 µM; in assay [9], > 30 µM; in assay [10], 29.8 µM; in [11], > 30 µM; in assay [12] it was > 30 µM. The AC50 in [13], in [14], in [15] and in [16] was > 30 µM each time.

Turning to `CC(C)N1CCOC(c2cccc(C(F)(F)F)c2)C1` (stereo not drawn) [OXAFLOZANE], the AC50 in assay [1] is 0.513 µM; in [2], > 30 µM; in [3] it was > 30 µM; in assay [4] it was 1.65 µM; in assay [5], > 30 µM; in assay [6] it was > 30 µM. The AC50 in [7] was 1.01 µM; in assay [8], > 30 µM; in [9] it was > 30 µM; in assay [10], > 30 µM; in assay [11] it was > 30 µM; in assay [12], > 30 µM. The AC50 in [13], in [14], in [15] and in assay [16] was > 30 µM each time.

In the case of `O=C1Nc2ccccc2C1(c1ccc(O)cc1)c1ccc(O)cc1` [OXYPHENISATINE], the half-maximal activity concentration (AC50) was > 30 µM in assay [1]; 5.01 µM in assay [2]; > 30 µM in [3]; > 30 µM in assay [4]; > 30 µM in [5]; 10.1 µM in assay [6]. Moreover, the AC50 in [7], in assay [8], in assay [9], in assay [10], in assay [11] and in assay [12] was > 30 µM each time. Also, the AC50 in assay [13], in assay [14], in assay [15] and in assay [16] was > 30 µM each time.

With `CN1C(C(=O)Nc2ccccn2)=C(OC(=O)/C=C/c2ccccc2)c2ccccc2S1(=O)=O` [PIROXICAM CINNAMATE], the AC50 in assay [1] is 13.4 µM; in [2], > 30 µM; in assay [3] it was > 30 µM; in assay [4], > 30 µM; in assay [5], > 30 µM; in assay [6], > 30 µM. The AC50 in assay [7] was > 30 µM; in assay [8], > 30 µM; in assay [9], > 30 µM; in [10], > 30 µM; in [11] it was > 10 µM; in assay [12] it was 16.3 µM. For the same molecule, the half-maximal activity concentration (AC50) in assay [13], in assay [14], in assay [15] and in assay [16] was > 30 µM each time.

Turning to `Cc1c(C(C)C)c(=O)n(-c2ccccc2)n1C` [PROPYPHENAZONE], the AC50 was > 30 µM in [1]; 21.9 µM in assay [2]; > 30 µM in assay [3]; > 30 µM in assay [4]; > 30 µM in [5]; > 30 µM in assay [6]. In addition, the AC50 in [7], in assay [8], in assay [9], in [10], in assay [11] and in assay [12] was > 30 µM each time. The AC50 in assay [13], in assay [14], in [15] and in [16] was > 30 µM throughout.

Consider `Cc1cn(-c2cc(NC(=O)c3ccc(C)c(Nc4nccc(-c5cnccn5)n4)c3)cc(C(F)(F)F)c2)cn1` [RADOTINIB], for which the AC50 in assay [1] is > 30 µM; in assay [2], 0.298 µM; in assay [3], > 30 µM; in assay [4], > 30 µM; in assay [5] it was > 30 µM; in [6], > 30 µM. In addition, the AC50 is > 30 µM in [7]; > 10 µM in [8]; 1.54 µM in [9]; > 3 µM in [10]; > 30 µM in assay [11]; 26 µM in assay [12]. Moreover, the AC50 in assay [13], in assay [14], in assay [15] and in [16] was > 30 µM in each case.
